Assay [1] concerns DA level in ST. As to the kind of experiment: Measurement of DA level in ST (ELISA). To be noted: MPTP 30 mg/kg mice. Format: in vivo, mice (C57BL/6j). Here is the method:
40 mice were classified into five groups such that eight mice belonged to each group. After the habituation period, all mice were orally administered with a drug every day. While the mice of Groups 1 and 2 were administered with saline (p.o.), the mice of Groups 3, 4, and 5 were administered with 5 mg/kg ropinirole (p.o.), 5 mg/kg AKNS-2 (p.o.), and 15 mg/kg AKNS-2 (p.o.), respectively. […]
On the 7th day after the last administration of MPTP, SNpc and ST of each mouse were carefully excised and stored at −80° C. until use. […] A concentration of proteins contained in the supernatant was measured by the Bradford method. […]
DA levels in ST were measured using a competitive ELISA kit (Abnova, Taipei City, Taiwan) according to the manufacturer's instructions. […] After determining a concentration of proteins contained in the supernatant, the DA level in each brain sample was detected twice using the ELISA kit. Absorbance was measured using a microreader (BioTek, Vt., USA) at 450 nm, and the intensity was inversely proportional to the DA level. The DA level was expressed as ng/mg protein.
In general terms: ELISA stands for enzyme-linked immunosorbent assay.

Assay [2] deals with MPTP-induced in vivo PD model. As to the kind of experiment: Pole test. Particulars: MPTP mice, 2 hours. Details: species or system mice (C57BL/6j). Here is the method: In this study, all animal management and experimental protocols were performed in compliance with guidelines of the Institutional Animal Care and Use Committee of the Korea Institute of Science and Technology. 40 mice (C57BL/6j, male, 8 weeks old) were purchased from SLC Inc. (Shizuoka, Japan). After arrival, every four mice were hosed in each cage (30 cm×18.5 cm×13 cm) and allowed free access to feed and water. All mice were housed under the following constant conditions: lights on from 6:00 to 18:00, a temperature of 23° C.±1° C., and a humidity of 50%±10%. After 7 days of a habituation period, the mice were used in the experiments according to standard protocols. 40 mice were classified into five groups such that eight mice belonged to each group. After the habituation period, all mice were orally administered with a drug every day. […] Each mouse was administered with a single dose of saline/MPTP injection every day for 8 days. At 7 days after the final MPTP injection, all mice were sacrificed by cervical dislocation, and then the whole brain, SNpc, and striatum (ST) were excised for biochemical analysis. […] Each mouse was placed on the top of the pole with the head raised up, and a time taken for the mouse to turn and descend the pole was recorded up to 120 seconds with a stopwatch. […] An average time of three tests was calculated to evaluate motor function.

Assay [3] has as its system autophagy-related protein markers including LC3, p62, AMPK, Erk, ULK, and mTOR. Briefly: Western blot of autophagy-related protein markers in ST and SN of mice. Format: in vivo, mice (C57BL/6j). Particulars: for expression of p-mTOR in ST / p-mTOR in SN: MPTP mice; for expression of p-ULK: ST and SN, vs MPTP. Here is the method:
(§1) 40 mice were classified into five groups such that eight mice belonged to each group. After the habituation period, all mice were orally administered with a drug every day. While the mice of Groups 1 and 2 were administered with saline (p.o.), the mice of Groups 3, 4, and 5 were administered with 5 mg/kg ropinirole (p.o.), 5 mg/kg AKNS-2 (p.o.), and 15 mg/kg AKNS-2 (p.o.), respectively. From the 5th day therefrom, the mice of Group 1 were intraperitoneally administered with a saline at 1 hour after gavage feeding of saline, and the mice of Groups 2, 3, 4, and 5 were administered with 30 mg/kg MPTP (i.p.) at 1 hour after gavage feeding of saline, ropinirole, AKNS-2 (5 mg/kg), and AKNS-2 (15 mg/kg), respectively. Each mouse was administered with a single dose of saline/MPTP injection every day for 8 days. At 7 days after the final MPTP injection, all mice were sacrificed by cervical dislocation, and then the whole brain, SNpc, and striatum (ST) were excised for biochemical analysis.
(§2) On the 7th day after the last administration of MPTP, SNpc and ST of each mouse were carefully excised and stored at −80° C. until use. Thereafter, brain tissue of SNpc and ST was homogenized in a PRO-PREP™ lysis buffer (iNtRON, Gyeonggi, Korea) containing a phosphatase inhibitor cocktail set I (Sigma-Aldrich, Mo., USA). After shaking at 4° C. for 30 minutes, homogenates were centrifuged at 4° C. at 13000×g for 20 minutes, and a supernatant obtained therefrom was collected and added to a new 1.5 mL tube. A concentration of proteins contained in the supernatant was measured by the Bradford method. A part of the supernatant was mixed with the same volume of a loading buffer and denatured in a heater at 99° C. for 5 minutes for western blot analysis. The remaining supernatant was stored at −80° C. for subsequent tests for MAO-B activity and DA level using an ELISA kit.
(§3) Protein markers contained in lysates of the SH-SY5Y cells and brain tissue of the mice (SNpc and ST) were measured by western blot analysis. […] Then, proteins separated on the gel were transferred to a polyvinylidene fluoride (PVDF) membrane for 45 minutes using a Trans-Blot Turbo Transfer System (Bio-Rad, USA). The membrane was washed with tris-buffered saline with 0.1% Tween 20, TBST) for 5 minutes and then blocked by 5% skim milk dissolved in a TBST buffer. The membrane was further incubated with monoclonal primary antibodies derived from rabbits (anti-GAPDH, anti-AMPK, anti-p-AMPK, anti-ULK, anti-p-ULK555, anti-Erk, anti-p-Erk, anti-mTOR, anti-p-mTOR, anti-LC3B, anti-TH, and anti-α-synuclein antibodies). The primary antibodies were diluted in a blocking buffer at a ratio of 1:1000 and incubated overnight at 4° C. On the second day, the membrane was washed with TBST three times (10 minutes each) and incubated at room temperature in a horseradish peroxidase-conjugated goat anti-rabbit IgG secondary antibody (diluted in a blocking buffer at a ratio of 1:2000). After incubating in the secondary antibody for 1 hour, the membrane was washed for 30 minutes. The protein blots on the membrane were developed using an ECL detection kit and visualized using an LAS-4000 mini system (Fujifilm, Japan). The intensity of the protein blots was quantified using Multi Gauge software (Fujifilm, Japan).
In general terms: Immunoblotting shows a protein as a band on a membrane.

The test system of assay [4] is TH and α-synuclein. As to the kind of experiment: Western blot of TH and α-synuclein in ST and SN of MPTP-impaired mice. Format: in vivo, mice (C57BL/6j). To be noted: for α-synuclein level: vs MPTP-treated mice; for TH level: MPTP mice. Here is the method: as §1, §2
as §3, with “On the second day, the membrane was washed with TBST three times (10 minutes each) and incubated at room temperature in a horseradish peroxidase-conjugated goat anti-rabbit IgG secondary antibody (diluted in a blocking buffer at a ratio of 1:2000). After incubating in the secondary antibody for 1 hour, the membrane was washed for 30 minutes. The protein blots on the membrane were developed using an ECL detection kit and visualized using an LAS-4000 mini system (Fujifilm, Japan).” left out

Setting [5] is: 15 mg/kg p.o., vs MPTP treatment.
Setting [6] is: both ST and SN, vs MPTP treatment.
Where [7] appears, read: both ST and SN, 5 mg/kg and 15 mg/kg p.o.

Experimental findings from patent publication US12234257B2, “Triterpene saponin derivative and use thereof” (KOREA INSTITUTE OF SCIENCE AND TECHNOLOGY, priority 2020, dated 2025) are described below.

On to `C[C@@H]1O[C@@H](O[C@@H]2[C@@H](O)[C@H](O[C@@H]3[C@@H](O[C@@H]4OC[C@@H](O)[C@H](O)[C@H]4O)[C@@H](O)[C@H](O[C@H]4[C@H](OC(=O)[C@]56CCC(C)(C)C[C@H]5C5=CC[C@@H]7[C@@]8(C)C[C@H](O)[C@H](O[C@@H]9O[C@H](CO)[C@@H](O)[C@H](O[C@@H]%10OC[C@@H](O)[C@H](O)[C@H]%10O)[C@H]9O)[C@@](C)(CO)[C@@H]8CC[C@@]7(C)[C@]5(C)C[C@H]6O)OC[C@H](O)[C@@H]4O)O[C@H]3C)OC[C@H]2O)[C@H](O)[C@H](O)[C@H]1O` [Compound 1, 3-O-β-D-xylopyranosyl-(1→3)-β-D-glucopyranosylpolygalacic acid 28-O-α-L-rhamnopyranosyl-(1→3)-β-D-xylopyranosyl-(1→4)-[β-D-xylopyranosyl-(1→3)]-α-L-rhamnopyranosyl-(1→2)-α-L-arabinopyranosyl ester], for which the “DA level in ST” value in assay [1] (15 mg/kg p.o.) is recorded as “the decrease in the DA level induced by MPTP was restored”. The “behavior performance in pole test” value in assay [2] (5 mg/kg and 15 mg/kg p.o.) is “considerably restored”. In addition, in assay [3] (setting [5]), the “expression of LC3-II in SN” value is “Although no noticeable difference was observed, increased expression of LC3-II was observed in SN” and the “expression of LC3-II in ST” value is “induced a significant increase in the expression of LC3-II in ST”. Besides, in assay [3], the “expression of p-mTOR in ST” value was “clearly showed a tendency to decrease the expression of p-mTOR in ST” and the “p-mTOR in SN” value is on record as “a significant decrease in p-mTOR”. The “expression of p-ULK” value in assay [3] (5 mg/kg and 15 mg/kg p.o.) is “significantly increased the expression of p-ULK in ST and SN”. In assay [3] (both ST and SN, 5 mg/kg and 15 mg/kg p.o., vs MPTP-treated group), the p62 levels result is “significantly decreased p62 levels”. Moreover, the “expression of p-Erk” value in assay [3] (both ST and SN, 15 mg/kg p.o., vs MPTP treatment) is recorded as “significantly increased”. In assay [3] (setting [6]), the p-AMPK result is “induced a significant increase in p-AMPK in both ST and SN”. In assay [4] (setting [7]), the α-synuclein level entry was “a significant decrease in the α-synuclein level” and the TH level entry was “considerably reversed”.

As for `CCCN(CCC)CCc1cccc2c1CC(=O)N2` [ropinirole, reference compound], in assay [1] (5 mg/kg p.o.), the “DA level in ST” value is on record as “the decrease in the DA level induced by MPTP was restored”. Also, in assay [2] (ropinirole (5 mg/kg p.o.)), the “behavior performance in pole test” value is given as “considerably restored”. Besides, in assay [3], the “expression of p-mTOR in ST” value is recorded as “clearly showed a tendency to decrease the expression of p-mTOR in ST” and the “p-mTOR in SN” value is recorded as “a significant decrease in p-mTOR”. Besides, the “expression of p-ULK” value in assay [3] (ropinirole) was “significantly increased the expression of p-ULK in ST and SN”. In addition, in assay [3] (setting [6]), the p-AMPK result was “induced a significant increase in p-AMPK in both ST and SN”. The α-synuclein level entry in assay [4] (ST and SN, 5 mg/kg p.o.) was “a significant decrease in the α-synuclein level”. For the same compound, in assay [4] (both ST and SN, 5 mg/kg p.o.), the TH level entry is recorded as “considerably reversed”.
